The values below are quoted from earlier work in PMC3826776 (Bioorganic & medicinal chemistry letters, 2011).

Data set [1] has as its system mGluR5. The conditions noted are these: read-out: IC50 (literature values); literature value.
Data set [2] has as its target mGluR5. The settings on record: read-out: Ki (literature values); literature value.
Data set [3] relates to brain p-glycoprotein efflux pump (P-gp). The settings on record: stated without reference.

As for `Cc1cccc(C#Cc2ccccc2)n1` [MPEP, 2-methyl-6-(phenylethynyl)-pyridine], the IC50 in data set [1] was 2 nM. In data set [2], the Ki is 12 nM. In addition, the P-gp substrate result in data set [3] was “not P-gp substrates”.
As for `Cc1nc(C#Cc2cccnc2)cs1` [MTEP, 3-[(2-methyl-1,3-thiazol-4yl)-ethynyl]-pyridine], the P-gp substrate entry in data set [3] is reported as “not P-gp substrates”.
